Measured values from patent US5571804A, “Cephalosporin antibiotics” (priority 1993, dated 1996).

How the values were obtained:
[1] = system: Staphylococcus aureus 6538P; experiment: MIC, two-fold agar dilution; type: cell-based; conditions: Muller-Hinton agar, 37° C., 20 hours
[2] = system: Staphylococcus aureus giorgio; experiment: MIC, two-fold agar dilution; type: cell-based; conditions: Muller-Hinton agar, 37° C., 20 hours
Staphylococcus aureus 77 = experiment: MIC, two-fold agar dilution; type: cell-based; conditions: Muller-Hinton agar, 37° C., 20 hours
[3] = system: Staphylococcus aureus 241; experiment: MIC, two-fold agar dilution; type: cell-based; conditions: Muller-Hinton agar, 37° C., 20 hours
[4] = system: Staphylococcus epidermidis 887E; experiment: MIC, two-fold agar dilution; type: cell-based; conditions: Muller-Hinton agar, 37° C., 20 hours
[5] = system: Streptococcus laecalis 29212A; experiment: MIC, two-fold agar dilution; type: cell-based; conditions: Muller-Hinton agar, 37° C., 20 hours
E. coli 10536 = experiment: MIC, two-fold agar dilution; type: cell-based; conditions: Muller-Hinton agar, 37° C., 20 hours
E. coli 3190Y = experiment: MIC, two-fold agar dilution; type: cell-based; conditions: Muller-Hinton agar, 37° C., 20 hours
E. coli 851E = experiment: MIC, two-fold agar dilution; type: cell-based; conditions: Muller-Hinton agar, 37° C., 20 hours
E. coli TEM1 1193E = experiment: MIC, two-fold agar dilution; type: cell-based; conditions: Muller-Hinton agar, 37° C., 20 hours
E. coli TEM3 3455E = experiment: MIC, two-fold agar dilution; type: cell-based; conditions: Muller-Hinton agar, 37° C., 20 hours
E. coli TEM5 3739E = experiment: MIC, two-fold agar dilution; type: cell-based; conditions: Muller-Hinton agar, 37° C., 20 hours
E. coli TEM7 3457E = experiment: MIC, two-fold agar dilution; type: cell-based; conditions: Muller-Hinton agar, 37° C., 20 hours
E. coli TEM9 2639E = experiment: MIC, two-fold agar dilution; type: cell-based; conditions: Muller-Hinton agar, 37° C., 20 hours
[6] = system: Pseudomonas aeruginosa 1912E; experiment: MIC, two-fold agar dilution; type: cell-based; conditions: Muller-Hinton agar, 37° C., 20 hours
[7] = system: Pseudomonas aeruginosa 10145; experiment: MIC, two-fold agar dilution; type: cell-based; conditions: Muller-Hinton agar, 37° C., 20 hours
[8] = system: Pseudomonas aeruginosa 6065; experiment: MIC, two-fold agar dilution; type: cell-based; conditions: Muller-Hinton agar, 37° C., 20 hours
[9] = system: Acinetobacter calcoaceticus 15473A; experiment: MIC, two-fold agar dilution; type: cell-based; conditions: Muller-Hinton agar, 37° C., 20 hours
[10] = system: Citrobacter diversus 2046E; experiment: MIC, two-fold agar dilution; type: cell-based; conditions: Muller-Hinton agar, 37° C., 20 hours
[11] = system: Enterobacter cloacae IND + VE 1194E; experiment: MIC, two-fold agar dilution; type: cell-based; conditions: Muller-Hinton agar, 37° C., 20 hours
Enterobacter cloacae P99 = experiment: MIC, two-fold agar dilution; type: cell-based; conditions: Muller-Hinton agar, 37° C., 20 hours
[12] = system: Klebsiella aerogenes SHV-1 1976E; experiment: MIC, two-fold agar dilution; type: cell-based; conditions: Muller-Hinton agar, 37° C., 20 hours
[13] = system: Klebsiella aerogenes K1 + 1082E; experiment: MIC, two-fold agar dilution; type: cell-based; conditions: Muller-Hinton agar, 37° C., 20 hours
Proteus vularis 6059A = experiment: MIC, two-fold agar dilution; type: cell-based; conditions: Muller-Hinton agar, 37° C., 20 hours
[14] = system: Serratia marcescens 1826E; experiment: MIC, two-fold agar dilution; type: cell-based; conditions: Muller-Hinton agar, 37° C., 20 hours
[15] = system: Salmonella typhimurium 14028A; experiment: MIC, two-fold agar dilution; type: cell-based; conditions: Muller-Hinton agar, 37° C., 20 hours
[16] = pharmakinetic variables in SD rats; conditions: rat, in vivo, iv, 20 mg/kg
Procedure: The pharmakinetic variables were determined using SD rats (.male.) of a body weight of 230±10g as follows. The "S" compound of each of the Examples was injected to femoral vein of 4-5 rats by 20mg/Kg and then blood was collected from femoral artery in 1, 2.5, 5, 10, 20, 40, 60 and 120 min.

Compound | minimal inhibitory concentration (MIC) [1] | minimal inhibitory concentration (MIC) [2] | minimal inhibitory concentration (MIC) (Staphylococcus aureus 77) | minimal inhibitory concentration (MIC) [3] | minimal inhibitory concentration (MIC) [4] | minimal inhibitory concentration (MIC) [5] | minimal inhibitory concentration (MIC) (E. coli 10536) | minimal inhibitory concentration (MIC) (E. coli 3190Y) | minimal inhibitory concentration (MIC) (E. coli 851E) | minimal inhibitory concentration (MIC) (E. coli TEM1 1193E) | minimal inhibitory concentration (MIC) (E. coli TEM3 3455E) | minimal inhibitory concentration (MIC) (E. coli TEM5 3739E) | minimal inhibitory concentration (MIC) (E. coli TEM7 3457E) | minimal inhibitory concentration (MIC) (E. coli TEM9 2639E) | minimal inhibitory concentration (MIC) [6] | minimal inhibitory concentration (MIC) [7] | minimal inhibitory concentration (MIC) [8] | minimal inhibitory concentration (MIC) [9] | minimal inhibitory concentration (MIC) [10] | minimal inhibitory concentration (MIC) [11] | other results
Nc1nc(/C(=N/O[C@H](C(=O)O)c2ccc(O)c(O)c2)C(=O)N[C@@H]2C(=O)N3C(C(=O)O)=C(CSc4nc(N)c5c(n4)CCC5)CS[C@H]23)cs1 [Compound I-4S, 7-[(Z)-2-(aminothiazol-4-yl)-2-(α-carboxyl-3,4-dihydroxybenzyioxyimino)acetamido]-3-(4-amino-5,6-cyclopentapyrimidine-2-yl)thiomethyl-3-cephem-4-carboxylate] | 1 | 1 | 8 | 64 | 32 | 4 | ≤ 0.008 | 0.031 | 0.031 | 0.063 | 0.016 | 0.063 | ≤ 0.008 | 0.25 | 0.25 | 0.13 | 0.13 | 0.13 | 0.063 | 2 | minimal inhibitory concentration (MIC) (Enterobacter cloacae P99): 8; minimal inhibitory concentration (MIC) [12]: 0.13; minimal inhibitory concentration (MIC) [13]: 0.031; minimal inhibitory concentration (MIC) (Proteus vularis 6059A): 0.13; minimal inhibitory concentration (MIC) [14]: 0.25; minimal inhibitory concentration (MIC) [15]: 0.016; AUC at 2 h [16]: 55500 ng·h/mL; half-life [16]: 57 min
Nc1nc(/C(=N/O[C@H](C(=O)O)c2ccc(O)c(O)c2)C(=O)N[C@@H]2C(=O)N3C(C(=O)O)=C(CSc4nc(N)c(N)c(N)n4)CS[C@H]23)cs1 [Compound I-5S, 7-[(Z)-2-(aminothiazol-4-yl)-2-(α-carboxy-3,4-dihydroxybenzyloxyimino)acetamido]-3-(4,5,6-triaminopyrimidine-2-yl)thiomethyl-3-cephem-4-carboxylate] | 2 | 1 | 8 | 64 | 32 | 4 | ≤ 0.008 | 0.031 | 0.031 | 0.031 | 0.016 | 0.063 | ≤ 0.008 | 0.25 | 0.25 | 0.13 | 0.25 | 0.13 | 0.063 | 2 | minimal inhibitory concentration (MIC) (Enterobacter cloacae P99): 8; minimal inhibitory concentration (MIC) [12]: 0.13; minimal inhibitory concentration (MIC) [13]: 0.031; minimal inhibitory concentration (MIC) (Proteus vularis 6059A): 0.13; minimal inhibitory concentration (MIC) [14]: 0.25; minimal inhibitory concentration (MIC) [15]: 0.016; AUC at 2 h [16]: 59500 ng·h/mL; half-life [16]: 59 min
